We go through 27 molecules from patent US8877801B2, “Compounds and compositions as selective estrogen receptor degraders” (Novartis AG, priority 2013, dated 2014).

pIC50: −log10 of the molar value.

For the assay, the target named is T1, ER (Homo sapiens, UniProt P03372).
T1 construct: transfected in MCF7 cells (containing endogenous ER); endogenous in cells; host or cells: MCF7 cells
T1 sequence (P03372 1-595): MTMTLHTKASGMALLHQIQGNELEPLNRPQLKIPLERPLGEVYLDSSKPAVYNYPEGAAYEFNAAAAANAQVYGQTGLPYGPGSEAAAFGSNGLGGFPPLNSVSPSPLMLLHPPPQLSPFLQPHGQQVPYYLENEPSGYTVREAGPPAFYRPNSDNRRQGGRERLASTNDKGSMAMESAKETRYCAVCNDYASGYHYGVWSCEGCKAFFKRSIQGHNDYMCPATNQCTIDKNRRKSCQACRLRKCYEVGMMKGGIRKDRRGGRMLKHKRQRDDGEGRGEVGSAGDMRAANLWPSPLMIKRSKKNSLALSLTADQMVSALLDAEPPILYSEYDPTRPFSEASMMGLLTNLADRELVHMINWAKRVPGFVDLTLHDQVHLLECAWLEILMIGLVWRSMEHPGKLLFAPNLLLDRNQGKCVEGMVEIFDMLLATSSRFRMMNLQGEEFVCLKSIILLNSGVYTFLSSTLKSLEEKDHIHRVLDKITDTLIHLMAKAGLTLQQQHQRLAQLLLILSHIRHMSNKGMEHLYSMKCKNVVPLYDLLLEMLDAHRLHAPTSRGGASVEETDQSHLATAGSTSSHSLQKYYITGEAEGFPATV
Nature of the assay: ER transcription assay (MCF7 cells), ERE-luciferase reporter. The format is cell-based. As to conditions: MCF7 cells, ER reporter gene, 0.1 nM 17β estradiol, 24 hours; read-out: MCF7 IC50 (inflection point of the inhibition of transcription in MCF7 cells). From the text: ER Transcription Assay (MCF7 Cells)
The ER transcription assay is a reporter assay that is based on the ability of ER to induce transcription from a luciferase reporter gene containing estrogen response elements (EREs) in the promoter/enhancer region. When the reporter gene is transfected in MCF7 cells (containing endogenous ER), transcription is reflected by the level of luciferase expression.
A day before transfection, cells are split into a T75 flask at a cell density of 300,000 cells/mL (10 mL total) and allowed to attach overnight in a humidified CO2 incubator at 37° C.
Approximately 20 ug DNA is mixed in OptiMEM (Invitrogen) to a total volume of 650 μL. Following incubation, the OptiMEM-DNA mixture is added to the OptiMEM-Lipofectin mix and incubated for 15 minutes at 37° C. The DNA-Lipofectin mixture is then added directly to the T75 flask and the flask is returned to the incubator.
After overnight incubation, compound is added to individual wells of a 96-well plate in a 10 μL volume of media at 10× concentration along with 17β estradiol whose final concentration is 0.1 nM. Normally, DMSO (used as a vehicle) is included to achieve a final concentration of 0.1% when added to the cells. Transfected cells are trypsinized, resuspended in DMEM/F12/10% charcoal-stripped serum and added to the 96-well plate at 25,000 cells/well in 90 μL of media. The plate is then returned to the incubator for 24 hours.
After incubation with compounds for 24 hours, Firefly and Renilla luciferase activities are measured to determine ER transcriptional activity. Media is removed from 96-well plates by decanting and blotting on paper towels.
One second total read time after a one second delay.
One second total read time after one second delay. If Firefly luciferase signal is high, Renilla assay must be done an hour after the Firefly assay due to incomplete squelching of Firefly signal.
The data describing the antagonist and degradation properties for the examples is compiled in table 10. The column titled MCF7 IC50 reports the inflection point of the inhibition of transcription in MCF7 cells as described above. Percentage ERα remaining reports the remaining ERα protein measured at 10 μM concentration of the ligand as described above. The column ERα IC50 reports the inflection point of the degradation in response to the ligand concentration.

As for `Cc1cc(C(F)(F)F)ccc1-c1sc2cc(O)ccc2c1Oc1ccc(/C=C/C(=O)O)cc1` [Example 10, (E)-3-(4-((6-hydroxy-2-(2-methyl-4-(tri-fluoromethyl)phenyl)-benzo[b]thiophen-3-yl)oxy)phenyl)acrylic acid], the pIC50 was 6.68.
To `O=C(O)/C=C/c1ccc(Oc2c(-c3ccccc3[N+](=O)[O-])sc3cc(O)ccc23)cc1` [Example 21, (E)-3-(4-((6-hydroxy-2-(2-nitrophenyl)-benzo[b]thiophen-3-yl)oxy)phenyl)-acrylic acid] belongs 6.50; to `O=C(O)/C=C/c1ccc(Oc2c(-c3ccc(C(F)F)cc3)sc3cc(O)ccc23)cc1` [Example 27, (E)-3-(4-((2-(4-(difluoromethyl)phenyl)-6-hydroxybenzo[b]thiophen-3-yl)oxy)phenyl)acrylic acid], 5.10.
As to `O=C(O)/C=C/c1ccc(Oc2c(-c3ccc(O)cc3)sc3c(F)c(O)ccc23)cc1` [Example 39, (E)-3-(4-((7-fluoro-6-hydroxy-2-(4-hydroxyphenyl)benzo[b]-thiophen-3-yl)oxy)phenyl)acrylic acid], the negative-log IC50 (pIC50) is 6.19.
To `CCCc1nnc(/C=C/c2ccc(Oc3c(-c4ccc(F)cc4C)sc4cc(O)ccc34)cc2)o1` [Example 47, (E)-2-(4-fluoro-2-methylphenyl)-3-(4-(2-(5-propyl-1,3,4-oxadiazol-2-yl)vinyl)phenoxy)benzo [b]thiophen-6-ol] belongs 6.95; to `Cc1ccc(C)c(-c2sc3cc(O)ccc3c2Oc2ccc(/C=C/C(=O)O)cc2)c1` [Example 14, (E)-3-(4-((2-(2,5-dimethylphenyl)-6-hydroxybenzo[b]-thiophen-3-yl)oxy)phenyl)-acrylic acid], 6.62.
As for `CNC(=O)/C=C/c1ccc(Oc2c(-c3ccc(F)cc3)sc3cc(O)ccc23)cc1` [Example 67, (E)-3-(4-((2-(4-fluorophenyl)-6-hydroxybenzo[b]thiophen-3-yl)oxy)phenyl)-N-methylacrylamide], the pIC50 was 6.43.
To `Cc1cc(F)ccc1-c1sc2cc(O)ccc2c1Oc1ccc(/C=C/c2nnnn2C)cc1` [Example 51, (E)-2-(4-fluoro-2-methylphenyl)-3-(4-(2-(1-methyl-1H-tetrazol-5-yl)vinyl)phenoxy)-benzo[b]thiophen-6-ol] belongs 7.21; to `O=C(O)/C=C/c1ccc(Oc2c(-c3cccc(F)c3)sc3cc(O)ccc23)cc1` [Example 7, (E)-3-(4-((2-(3-fluorophenyl)-6-hydroxybenzo[b]-thiophen-3-yl)oxy)phenyl)-acrylic acid], 6.15.
Take `Cc1c(O)cccc1-c1sc2cc(O)ccc2c1Oc1ccc(/C=C/C(=O)O)cc1` [Example 16, (E)-3-(4-((6-hydroxy-2-(3-hydroxy-2-methyl-phenyl)benzo[b]-thiophen-3-yl)oxy)phenyl)-acrylic acid]: the pIC50 was 6.89.
To `O=C(O)/C=C/c1ccc(Oc2c(-c3ccc(O)c(F)c3)sc3cc(O)ccc23)cc1` [Example 40, (E)-3-(4-((2-(3-fluoro-4-hydroxyphenyl)-6-hydroxybenzo[b]thiophen-3-yl)oxy)phenyl)acrylic acid] belongs 6.37; to `Cc1cc(F)ccc1-c1sc2cc(O)ccc2c1Oc1ccc(/C=C/C(=O)NO)cc1` [Example 32, (E)-3-(4-((2-(4-fluoro-2-methylphenyl)-6-hydroxybenzo[b]thiophen-3-yl)oxy)phenyl)-N-hydroxyacrylamide], 7.82.
To `O=C(O)/C=C/c1ccc(Oc2c(-c3ccccc3C(F)(F)F)sc3cc(O)ccc23)cc1` [Example 8, (E)-3-(4-((6-hydroxy-2-(2-(trifluoromethyl)-phenyl)benzo[b]-thiophen-3-yl)oxy)phenyl)-acrylic acid] belongs 7.64; to `CN(C)Cc1ccccc1-c1sc2cc(O)ccc2c1Oc1ccc(/C=C/C(=O)O)cc1` [Example 77, (E)-3-(4-((2-(2-((dimethylamino)methyl)phenyl)-6-hydroxybenzo[b]thiophen-3-yl)oxy)phenyl)acrylic acid], 7.40; to `CN(c1ccc(/C=C/C(=O)O)cc1)c1c(-c2ccc(O)cc2)sc2cc(O)ccc12` [Example 30, (E)-3-(4-((6-hydroxy-2-(4-hydroxyphenyl)benzo[b]thiophen-3-yl)(methyl)amino)phenyl)acrylic acid], 5.47.
To `CNC(=O)/C=C/c1ccc(Oc2c(-c3ccc(O)cc3)sc3cc(O)ccc23)cc1` [Example 66, (E)-3-(4-((6-hydroxy-2-(4-hydroxyphenyl)benzo-[b]thiophen-3-yl)oxy)phenyl)-N-methylacrylamide] belongs 7.28.
For `CC(C)(C)c1ccccc1-c1sc2cc(O)ccc2c1Oc1ccc(/C=C/C(=O)O)cc1` [Example 20, (E)-3-(4-((2-(2-(tert-butyl)phenyl)-6-hydroxybenzo[b]-thiophen-3-yl)oxy)phenyl)-acrylic acid], the pIC50 was 7.44.
To `Cc1cc(C)cc(-c2sc3cc(O)ccc3c2Oc2ccc(/C=C/C(=O)O)cc2)c1` [Example 23, (E)-3-(4-((2-(3,5-dimethylphenyl)-6-hydroxybenzo[b] - thiophen-3-yl)oxy)phenyl)-acrylic acid] belongs 6.13.
To `CC(C)(C)c1ccc(-c2sc3cc(O)ccc3c2Oc2ccc(/C=C/C(=O)O)cc2)cc1` [Example 22, (E)-3-(4-((2-(4-(tert-butyl)phenyl)-6-hydroxybenzo[b]-thiophen-3-yl)oxy)phenyl)-acrylic acid] belongs 6.07; to `CCOC(=O)/C=C/c1ccc(Oc2c(-c3ccc(O)cc3)sc3cc(O)ccc23)cc1C` [Example 34, (E)-ethyl 3-(4-((6-hydroxy-2-(4-hydroxyphenyl)benzo[b]-thiophen-3-yl)oxy)-2-methylphenyl)acrylate], 7.32.
In the case of `C/C(=C\c1ccc(Oc2c(-c3ccc(O)cc3)sc3cc(O)ccc23)cc1)C(=O)O` [Example 28, (E)-3-(4-((6-hydroxy-2-(4-hydroxyphenyl)benzo[b]thiophen-3-yl)oxy)phenyl)-2-methylacrylic acid], the negative-log IC50 (pIC50) was 6.05.
For the molecule `CCOC(=O)/C=C/c1ccc(Oc2c(-c3ccc(O)cc3)sc3cc(O)ccc23)c(C)c1` [Example 35, (E)-ethyl 3-(4-((6-hydroxy-2-(4-hydroxyphenyl)benzo[b]-thiophen-3-yl)oxy)-3-methylphenyl)acrylate], the pIC50 is 6.99.
To `O=C(/C=C/c1ccc(Oc2c(-c3ccc(F)cc3)sc3cc(O)ccc23)cc1)NCCC(F)(F)F` [Example 33, (E)-3-(4-((2-(4-fluorophenyl)-6-hydroxybenzo[b]-thiophen-3-yl)oxy)phenyl)-N-(3,3,3-trifluoropropyl)-acrylamide] belongs 7.14.
For `Cc1cc(Oc2c(-c3ccc(O)cc3)sc3cc(O)ccc23)ccc1/C=C/C(=O)O` [Example 56, (E)-3-(4-((6-hydroxy-2-(4-hydroxyphenyl)-benzo[b]thiophen-3-yl)oxy)-2-methylphenyl)-acrylic acid], the pIC50 was 5.90.
In the case of `Cc1cccc(-c2sc3cc(O)ccc3c2Oc2ccc(/C=C/C(=O)O)cc2)c1C` [Example 13, (E)-3-(4-((2-(2,3-dimethylphenyl)-6-hydroxybenzo[b]-thiophen-3-yl)oxy)phenyl)-acrylic acid], the pIC50 is 6.82.
To `CCc1ccccc1-c1sc2cc(O)ccc2c1Oc1ccc(/C=C/C(=O)O)cc1` [Example 18, (E)-3-(4-((2-(2-ethylphenyl)-6-hydroxybenzo[b]-thiophen-3-yl)oxy)phenyl)-acrylic acid] belongs 7.44.
To `Cc1cc(/C=C/C(=O)O)ccc1Oc1c(-c2ccc(O)cc2)sc2cc(O)ccc12` [Example 57, (E)-3-(4-((6-hydroxy-2-(4-hydroxyphenyl)-benzo[b]thiophen-3-yl)oxy)-3-methylphenyl)acrylic acid] belongs 5.99.
